Results from patent publication US10072026B2, “Crystalline form of 3-((1R,3s,5S)-3-((7-((5-methyl-1H-pyrazol-3-yl)amino)-1,6-naphthyridin-5-yl)amino)-8-azabicyclo[3.2.1]octan-8-yl)propanenitrile” (priority 2015, dated 2018).
Read-outs that look alike come from different tables or passages of the source.

What was measured:
in vivo = experiment: in vivo; design: species or system Sprague Dawley rats; details: Sprague Dawley, rat, po, 5 mg/kg
Protocol: Assay 5: Colon Pharmacokinetics in Rats
Test compounds were individually formulated in 0.5% methyl-cellulose in water and dosed via oral gavage at 5 mg/kg to Sprague Dawley rats. At various time points (typically 1, 2, 4, 6, 24 hr) post dosing, blood samples were removed via cardiac puncture and intact colons were excised from the rats. Blood samples were centrifuged at 1500×g for 15 min to collect plasma. Colons were washed with ice cold phosphate buffered saline (PBS), weighed, and homogenized at a dilution of 1:10 in PBS. Plasma and colon levels of test compound were determined by LC-MS analysis against analytical standards constructed into a standard curve in the test matrix. A colon to plasma ratio was determined as the ratio of the colon AUC to the plasma AUC in μg hr/g.

[1] = system: IL-13 induced STAT6 phosphorylation in BEAS-2B human lung epithelial cells; experiment: AlphaScreen cellular JAK potency assay, BEAS-2B; details: Homo sapiens, BEAS-2B, read-out: BEAS2B pIC50 (converted)
[2] = system: IL-4 induced STAT6 phosphorylation in THP-1 human monocytic cells; experiment: Cellular JAK potency assay, THP-1; details: Homo sapiens, THP-1, read-out: THP-1 IL4 pIC50 (converted)
JAK2 = JAK2 (Homo sapiens (Human), UniProt O60674); experiment: LanthaScreen JAK biochemical assay (JAK2)
Sequence of JAK2 (O60674 whole entry): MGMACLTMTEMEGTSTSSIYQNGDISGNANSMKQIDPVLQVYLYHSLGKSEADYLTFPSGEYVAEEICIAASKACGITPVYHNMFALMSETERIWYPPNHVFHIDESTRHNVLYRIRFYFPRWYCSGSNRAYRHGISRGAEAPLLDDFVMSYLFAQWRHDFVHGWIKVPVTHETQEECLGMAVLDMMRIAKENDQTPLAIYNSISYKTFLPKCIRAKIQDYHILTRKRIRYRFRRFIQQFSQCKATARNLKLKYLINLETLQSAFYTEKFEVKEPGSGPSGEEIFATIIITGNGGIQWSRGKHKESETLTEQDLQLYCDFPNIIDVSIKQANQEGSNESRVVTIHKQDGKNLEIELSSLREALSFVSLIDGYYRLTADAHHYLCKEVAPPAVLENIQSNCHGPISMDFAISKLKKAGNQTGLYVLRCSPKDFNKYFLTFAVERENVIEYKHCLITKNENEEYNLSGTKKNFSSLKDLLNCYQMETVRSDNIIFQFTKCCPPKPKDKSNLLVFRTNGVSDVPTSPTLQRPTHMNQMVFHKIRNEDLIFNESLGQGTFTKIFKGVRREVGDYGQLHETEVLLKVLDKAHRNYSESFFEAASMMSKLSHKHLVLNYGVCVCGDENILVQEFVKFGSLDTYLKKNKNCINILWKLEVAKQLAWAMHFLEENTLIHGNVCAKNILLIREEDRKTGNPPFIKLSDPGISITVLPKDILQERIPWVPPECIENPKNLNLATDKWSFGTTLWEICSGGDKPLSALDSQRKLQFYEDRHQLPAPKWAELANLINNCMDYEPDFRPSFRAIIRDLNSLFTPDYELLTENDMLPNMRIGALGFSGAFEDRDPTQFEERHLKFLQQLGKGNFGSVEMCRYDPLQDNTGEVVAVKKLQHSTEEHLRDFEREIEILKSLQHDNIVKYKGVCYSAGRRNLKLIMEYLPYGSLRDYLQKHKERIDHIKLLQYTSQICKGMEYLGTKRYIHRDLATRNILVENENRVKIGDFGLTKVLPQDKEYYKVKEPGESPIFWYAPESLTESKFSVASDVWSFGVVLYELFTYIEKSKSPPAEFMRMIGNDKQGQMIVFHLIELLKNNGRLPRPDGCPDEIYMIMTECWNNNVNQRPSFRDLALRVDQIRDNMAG

JAK1 = JAK1 (Homo sapiens (Human), UniProt P23458); experiment: LanthaScreen JAK biochemical assay (JAK1); details: read-out: JAK 1 (pKi) (converted)
Sequence of JAK1 (P23458 whole entry): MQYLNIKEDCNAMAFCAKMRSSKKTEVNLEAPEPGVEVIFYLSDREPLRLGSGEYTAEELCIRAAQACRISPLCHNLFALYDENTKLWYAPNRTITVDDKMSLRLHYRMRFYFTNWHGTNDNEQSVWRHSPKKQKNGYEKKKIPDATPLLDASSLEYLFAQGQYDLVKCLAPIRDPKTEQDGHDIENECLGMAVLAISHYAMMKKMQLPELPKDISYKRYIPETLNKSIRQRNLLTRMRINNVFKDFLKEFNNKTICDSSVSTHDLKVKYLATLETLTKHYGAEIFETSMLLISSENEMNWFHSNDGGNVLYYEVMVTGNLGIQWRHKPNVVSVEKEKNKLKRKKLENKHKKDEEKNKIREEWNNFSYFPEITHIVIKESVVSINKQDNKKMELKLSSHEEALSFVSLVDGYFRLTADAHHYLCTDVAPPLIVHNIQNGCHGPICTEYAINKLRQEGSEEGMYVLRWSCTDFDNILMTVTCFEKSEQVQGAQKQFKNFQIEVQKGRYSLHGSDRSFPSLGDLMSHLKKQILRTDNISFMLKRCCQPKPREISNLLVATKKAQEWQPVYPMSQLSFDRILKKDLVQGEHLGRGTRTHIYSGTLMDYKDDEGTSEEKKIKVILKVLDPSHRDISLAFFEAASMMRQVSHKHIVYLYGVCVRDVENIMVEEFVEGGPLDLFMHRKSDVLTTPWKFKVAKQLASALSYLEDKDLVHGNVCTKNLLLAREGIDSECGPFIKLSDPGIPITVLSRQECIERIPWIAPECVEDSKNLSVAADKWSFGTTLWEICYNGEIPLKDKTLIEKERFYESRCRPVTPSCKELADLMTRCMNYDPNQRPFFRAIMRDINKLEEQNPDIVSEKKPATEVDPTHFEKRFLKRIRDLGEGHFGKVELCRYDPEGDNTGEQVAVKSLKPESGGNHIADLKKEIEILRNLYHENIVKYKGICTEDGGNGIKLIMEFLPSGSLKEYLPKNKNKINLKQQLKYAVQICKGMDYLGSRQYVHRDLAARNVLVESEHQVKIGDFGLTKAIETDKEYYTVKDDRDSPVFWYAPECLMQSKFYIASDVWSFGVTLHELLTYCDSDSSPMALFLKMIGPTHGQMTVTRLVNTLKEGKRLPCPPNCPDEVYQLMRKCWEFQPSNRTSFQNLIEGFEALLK

[3] = system: oxazolone-induced colitis; experiment: Mouse model of oxazolone-induced colitis; assay type: in vivo, BALB/C mice; details: for decrease in DAI score as compared with vehicle treated animals: mouse, PO, 1, 3, and/or 10 mg/kg BID
Protocol: Assay 7: Mouse Model of Oxazalone-Induced Colitis
Oxazolone-induced colitis is an experimental model that has a histological resemblance to human ulcerative colitis (Heller et al. Immunology, 2002, 17, 629-638). Adult BALB/C mice from Harlan were used in the assay. On day 1, animals were lightly anesthetized with isoflurane and the hairs between the shoulder were carefully removed before oxazolone (4%, 150 μL, 4:1 acetone:olive oil formulation) or vehicle solution was slowly applied for skin sensitization. Seven days after skin sensitization, the mice were fasted overnight, anesthetized with isoflurane inhalation, and a 1 mL syringe equipped with a 3.5-F catheter, filled with oxazolone solution, was inserted carefully about 4 cm into the colon of the mouse. Following insertion, 50 μL of the oxazolone solution (1%, 1:1 ethanol:water formulation) was injected very slowly (over 30 sec using an injection pump) into the colon. The catheter was removed and the mice were held vertically (head down) for 2 min to ensure that the entire oxazolone solution remained inside the colon. Drug treatment (PO, BID or TID) or vehicle was initiated a day prior to the oxazolone intrarectal (IR) challenge. Two-day post oxazolone intrarectal challenge, the Disease Activity Index (DAI) was assessed by treatment-blinded experimenters for each mouse according to the criteria score: stool consistency score (0, normal; 2, loose; 4, diarrhea), gross bleeding score (0, absence; 2, blood tinged; 4, presence), and weight loss score (0, none; 1, 1%-5%; 2, 5%-10%; 3, 10%-20%; 4, more than 20%); DAI=average of (stool consistency score+gross bleeding score+weight loss score).
Selected compounds of the invention were tested in the assay. Efficacy in the model is evidenced by a decrease in DAI score as compared with the score from vehicle treated animals.

mouse splenic NK cells = experiment: Immunosuppression effects in mouse splenic natural killer (NK) cells; assay type: in vivo, Balb/C mice; details: PO BID three days; for treatment effect on B and T cell populations: mouse spleen
Protocol: Adult male Balb/C mice (12-14 weeks of age) from Harlan were used for the study. […] Spleens were harvested 1 or 2 h post last dose and crushed immediately for cell subtype staining. Prior to fixation, fluorophore-labelled antibodies for CD19 (FITC; B cells), CD3e (PE; pan T cells) and DX5 (APC; NK cells) were incubated with splenocyte samples from each animal to allow for simultaneous, multiple subtype % analysis on the flow cytometer. The number of total spleen cells for each animal was measured by Scepter™ 2.0 Handheld Automated Cell Counter. The absolute number of lymphocyte subtype population (e.g., splenic B, T and NK cells) was calculated from the percentage of each subtype times total spleen cells for each animal. A one way ANOVA, with Dunnett's post hoc test, was used to compare the splenic lymphocytes number of the vehicle and test compound groups. The a level was set at p<0.05. Data were presented as the mean±SEM for each group.

[4] = Pharmacokinetics in plasma and the GI tract in rats; assay type: in vivo, Sprague Dawley rats; details: rat, 5 mg/kg oral, all time points (0.5-24 hr); below limit of quantitation
Protocol: Assay 6: Pharmacokinetics in Plasma and the GI Tract in Rats and Dogs A test compound was dosed to male Sprague Dawley rats (n=3) as described in Assay 5. […] At all time points, the plasma concentration was below the limit of quantitation of 0.001 μg/mL.

[5] = Pharmacokinetics in plasma and the GI tract in dogs; assay type: in vivo; details: male, beagle, GI tissue (duodenum, ileum, cecum, colon) and plasma, dog, 5 mg/kg oral
Protocol: Assay 6: Pharmacokinetics in Plasma and the GI Tract in Rats and Dogs
An analogous experiment was performed in dogs. Male beagle dogs (n=2) were dosed via oral gavage with 5 mg/kg of test compound, formulated as above. In dog number 1, plasma samples were taken at 0.25, 1, 2, 4, 6, and 24 hr post dosing. In dog number 2, plasma samples were taken to 6 hr. In both dog number 1 (at 24 hr) and dog number 2 (at 6 hr) the GI tract was removed and segmented as follows: duodenum, ileum, cecum and the colon segmented into equal thirds (proximal, middle, and distal colon). For each of the GI segments, an approximately 2 cm piece was excised in the middle of the segment. Each was washed thoroughly in ice cold PBS buffer and then homogenized in 5 volumes of PBS buffer and analyzed as above. […] The GI tissue to plasma ratio ranged from about 7 to about 30 for collections conducted at 24 hours post oral dose.

[6] = First in human study of safety, tolerability and pharmacokinetics in healthy subjects; assay type: in vivo; details: for Cmax at 14 days / Cmax: human, plasma, oral, healthy subjects; for Cmax at 14 days: 14 days administration up to 300 mg; for Cmax: single dose up to 1000 mg
Protocol: Assay 9: First in Human Study to Evaluate the Safety, Tolerability and Pharmacokinetics in Healthy Subjects
The compound of Example 1 was evaluated in a double-blinded, randomized, placebo-controlled, single ascending dose (SAD) and multiple ascending dose (MAD) study of safety, tolerability, and pharmacokinetics in healthy subjects. Pharmacokinetic samples were collected up to 72 hours post the final dose in both the SAD study (after the first dose) and MAD study (after 14 days of once-daily dosing). The SAD study enrolled 5 cohorts and the MAD study enrolled 4 cohorts totaling 72 subjects, of which 71 completed the dosing period.
Plasma pharmacokinetic (PK) parameters were determined by non-compartmental analysis using WinNonLin Version 6.4.0 (Pharsight, St Louis, Mo.). The plasma PK parameter presented here is:
Cmax: maximum concentration in plasma

[7] = Solid state stability assessment; assay type: physicochemical; design: Impurity at RRT 0.96 / Impurity at RRT 1.84: unit not given here
Description: Solid State Stability Assessment
At specific intervals, the contents of a representative sample was removed and analyzed by HPLC for chemical purity and by Karl Fischer for water content.

[8] = Dynamic moisture sorption assessment; assay type: physicochemical
Protocol: The DMS run was performed isothermally at 25° C.

[9] = read-out: average Cmax plasma concentration
[10] = read-out: individual subject Cmax

`Cc1cc(Nc2cc3ncccc3c(N[C@@H]3C[C@H]4CC[C@@H](C3)N4CCF)n2)n[nH]1` [Example 2, N^5-((1R,3s,5S)-8-(2-fluoroethyl)-8-azabicyclo[3.2.1]octan-3-yl)-N^7-(5-methyl-1H-pyrazol-3-yl)-1,6-naphthyridine-5,7-diamine] showed a Kp (in vivo) greater than 450, an IC50 [1] of 31.6 to 200 nM and an IC50 [2] of 31.6 to 200 nM. The Ki (JAK2) was 0.1 to 1 nM, the Ki (JAK1) was 0.1 to 1 nM and the “decrease in DAI score as compared with vehicle treated animals” value [3] was “statistically significant decrease”.

In the case of `C[C@@H]1CCN(C(=O)CC#N)C[C@@H]1N(C)c1ncnc2[nH]ccc12` [tofacitinib], the “treatment effect on B and T cell populations” value (mouse splenic NK cells) is reported as “No treatment effect” and the “splenic NK cell counts” value (mouse splenic NK cells; mouse, tofacitinib 30 mg/kg, Example 1 up to 100 mg/kg) is reported as “significantly decreased”.

For `Cc1cc(Nc2cc3ncccc3c(N[C@@H]3C[C@H]4CC[C@@H](C3)N4CCC#N)n2)n[nH]1` [Example 1, 3-((1R,3s,5S)-3-((7-((5-methyl-1H-pyrazol-3-yl)amino)-1,6-naphthyridin-5-yl)amino)-8-azabicyclo[3.2.1]octan-8-yl)propanenitrile], the Kp (in vivo) was greater than 450, the plasma concentration [4] was less than 1 ng/mL and the IC50 [1] was 31.6 to 200 nM. The “treatment effect on B and T cell populations” value (mouse splenic NK cells) was “No treatment effect”, the IC50 [2] was 31.6 to 200 nM and the “minimal dose that caused a significant anti-colitic effect” value ([3]; mouse oxazolone-induced colitis) was 1 mg/kg. The “decrease in DAI score as compared with vehicle treated animals” value [3] was “statistically significant decrease”, the Kp at 6 hours ([5]; 6 hours post dose, read-out: ratio of concentration in GI tissue to plasma) was 9 to 165 and the Kp at 24 hours ([5]; 24 hours post dose, read-out: GI tissue to plasma ratio) was 7 to 30. The “drug concentration in stool samples” value ([6]; healthy human subjects) was “high drug concentration”, the Cmax at 14 days [6, 9] was less than 15 ng/mL and the Cmax at 14 days [6, 10] was no more than 30 ng/mL. It also gave a Cmax [6, 9] of less than 50 ng/mL and a Cmax [6, 10] of no more than 100 ng/mL.

With `Cc1cc(Nc2cc3ncccc3c(N[C@@H]3C[C@H]4CC[C@@H](C3)N4CCC#N)n2)n[nH]1` [Form I, 3-((1R,3s,5S)-3-((7-((5-methyl-1H-pyrazol-3-yl)amino)-1,6-naphthyridin-5-yl)amino)-8-azabicyclo[3.2.1]octan-8-yl)propanenitrile] the “changes in chemical content and impurity profile” value ([7]; 3 months at 40° C. and 75% relative humidity) was “no statistically significant changes”, the Assay ([7]; T = 0) was 97.4 % w/w and the HPLC purity ([7]; T = 0) was 99.76 a/a %. For the same molecule, the “Impurity at RRT 0.96” value ([7]; T = 0) was 0.07, the “Impurity at RRT 1.84” value ([7]; T = 0) was 0.08 and the “Water (KF)” value ([7]; T = 0) was less than 0.2 % w/w. The Assay ([7]; T = 1 Month, 40° C./75% RH) was 98.7 % w/w, the HPLC purity ([7]; T = 1 Month, 40° C./75% RH) was 99.79 a/a % and the “Impurity at RRT 0.96” value ([7]; T = 1 Month, 40° C./75% RH) was 0.07. For the same molecule, the “Impurity at RRT 1.84” value ([7]; T = 1 Month, 40° C./75% RH) was 0.08, the Assay ([7]; T = 3 Month, 25° C./60% RH) was 96.3 % w/w and the HPLC purity ([7]; T = 3 Month, 25° C./60% RH) was 99.77 a/a %. For the same molecule, the “Impurity at RRT 0.96” value ([7]; T = 3 Month, 25° C./60% RH) was 0.07, the “Impurity at RRT 1.84” value ([7]; T = 3 Month, 25° C./60% RH) was 0.05 and the Assay ([7]; T = 3 Month, 40° C./75% RH) was 93.8 % w/w. For the same molecule, the HPLC purity ([7]; T = 3 Month, 40° C./75% RH) was 99.75 a/a %, the “Impurity at RRT 0.96” value ([7]; T = 3 Month, 40° C./75% RH) was 0.07 and the “Impurity at RRT 1.84” value ([7]; T = 3 Month, 40° C./75% RH) was 0.05. For the same molecule, the “Water (KF)” value ([7]; T = 3 Month, 40° C./75% RH) was less than 0.2 % w/w, the “weight gain (moisture sorption)” value ([8]; 5% to 90% relative humidity, room temperature, listed as Crystalline 3-(1R,3s,5S)-3-((7-((5-methyl-1H-pyrazol-3-yl)amino)-1,6-naphthyrid))) was “less than 0.15%” and the hygroscopicity ([8]; two cycles of sorption and desorption, 25° C.) was “non-hygroscopic”.
